Patent publication WO2016087994A1, “Btk inhibitors to treat solid tumors through modulation of the tumor microenvironment” (dated 2016)
pEC50, pIC50: −log10 of the molar value. Entries after “also recorded” stand apart in the source; their conditions may differ. Where two headings read alike, the source gives them in different places.

Experiments:
hepatocytes = test: Metabolism in hepatocytes with 14C-labeled Formula (II); format: in vitro ADME, mouse, rat, dog, rabbit, monkey, and human
[1] = tested on: NK cells with trastuzumab-coated HER18 breast cancer cells; test: Trastuzumab-dependent NK cell degranulation (CD107a); format: cell-based, human; conditions: trastuzumab-stimulated
[2] = Brain and CSF pharmacokinetics in Sprague-Dawley rats; format: in vivo; conditions: rat
A3 adenosine receptor = A3 adenosine receptor (Homo sapiens, UniProt P0DMS8)
[3] = tested on: PBMC subsets (MDSC, NK cells); test: Peripheral blood cell subsets in CLL patients by flow cytometry; format: in vivo, human; conditions: C1D28, C2D28
[4] = Respiratory function study; format: in vivo, rats; conditions: doses through 300 mg/kg
[5] = Cardiovascular function study in telemeterized dogs; format: in vivo, male beagle dogs; conditions: single doses through 30 mg/kg
[6] = tested on: rituximab-coated Raji cells; test: Rituximab ADCC, chromium release, Raji targets; format: cell-based, human; conditions: 1 μM; healthy donor NK cells / Raji
[7] = tested on: GPVI platelet aggregation; test: GPVI (convulxin-induced) human platelet aggregation; format: cell-based
[8] = tested on: NK cells with rituximab-coated DHL4 lymphoma cells; test: Rituximab-dependent NK cell degranulation (CD107a); format: cell-based, human
[9] = tested on: EGF receptor phosphorylation (p-EGFR), A431 cells; test: In vitro EGFR phosphorylation in A431 cells; format: cell-based, human; conditions: 10 μM
[10] = tested on: KrasG12D;Trp53R172H;Pdx1-Cre (KPC) derived pancreatic tumor; test: Orthotopic pancreatic cancer model (KPC-derived cell line); format: in vivo, C57BL/6 mice; conditions: oral 15 mg/kg
[11] = tested on: NK cells (CD56+/CD107a+) with MEC-1 cells; test: Obinutuzumab-stimulated NK cell degranulation in whole blood; format: cell-based, human; conditions: obinutuzumab 1 μg/mL; 0.1, 1, 10 μM
relapsed/refractory CLL = test: Clinical study of Formula (II) in relapsed/refractory CLL
CD8 + T cells [12] = test: CD8+ T cell IFN-γ levels; format: cell-based; conditions: relative to vehicle
CYP enzymes = test: Nonclinical CYP interaction studies; format: in vitro ADME
ID8 ovarian cancer = test: ID8 syngeneic orthotopic ovarian cancer model; format: in vivo, mouse; conditions: 15 mg/kg/BID oral
[13] = tested on: KPC pancreatic tumors (KRAS, p53); test: KPC genetic pancreatic cancer model; format: in vivo, mouse
[14] = tested on: human platelet-mediated thrombosis; test: In vivo human platelet thrombus formation after laser injury in VWF HA1 mice; parameters: species or system human platelets in VWF HA1 mice
[15] = Glutathione binding in vitro; format: in vitro ADME
[16] = Functional observation battery; format: in vivo, rats; conditions: doses through 300 mg/kg
[17] = tested on: KPC derived mouse pancreatic cancer cells; test: KPC-derived mouse pancreatic cancer cells injected into pancreas, Formula (II) and/or gemcitabine; format: in vivo; conditions: Formula (II) 15 mg/kg/BID oral; gemcitabine 15 mg/kg IV every 4 days x3
primary CLL cells = test: Rituximab ADCC, chromium release, primary CLL targets; format: cell-based, human; conditions: 1 μM; NK cells from CLL patients, autologous CLL cells
KrasLA2 NSCLC tumors = test: KrasLA2 genetic NSCLC model; format: in vivo, mouse
[18] = tested on: CD8 + T cells with B lymphoblast targets; test: Cytotoxic T cell (CTL) assay; format: cell-based; conditions: 500 nM, relative to vehicle
BTK = molecular target: T1, BTK (Mus musculus, UniProt P35991); test: BTK occupancy in MDSCs of tumor bearing PDA mice; format: in vivo; conditions: 15 mg/kg BID, Day 8, 4 hours post dose, N=5
T1 construct: MDSCs were purified from tumor bearing PDA mice; from tissue; host or cells: granulocytic and monocytic MDSCs from tumor-bearing PDA mice

CD8 + T cells [19] = test: CD8+ T cell viability; format: cell-based; conditions: higher concentrations of ibrutinib; any concentration of Formula (II)
CXCL12 and CCL2 = test: Plasma chemokines in treated CLL patients; format: in vivo, human
CD4 + T cells = test: Th17 and Treg development of CD4+ T cells; format: cell-based
CYP3A4 = CYP3A4 (Homo sapiens, UniProt P08684); test: CYP metabolism (loss of parent drug); format: in vitro ADME; conditions: in vitro
[20] = tested on: NK cells with trastuzumab-coated HER18 breast cancer cells; test: Trastuzumab-dependent NK cell IFN-γ secretion; format: cell-based, human; conditions: trastuzumab-stimulated
[21] = In vivo metabolism in plasma, bile and urine; parameters: species or system rats, dogs, and monkeys; conditions: bile, urine, preliminary
apoptotic B-CLL = test: Apoptosis of B-CLL cells in treated CLL patients; format: in vivo, human
Itk kinase = molecular target: T2, Itk kinase (Homo sapiens, UniProt Q08881); test: Kinome screen, Itk; format: biochemical; conditions: see Table 2 (missing)
T2 construct: Life Technologies (performed the screen, or the value is from the literature)

[22] = tested on: B cell receptor (CD69 on CD19+ B cells); test: Inhibition of BCR signaling (CD69) on B cells in whole blood; format: cell-based; conditions: Homo sapiens, 18 h

T1 sequence (P35991 whole entry): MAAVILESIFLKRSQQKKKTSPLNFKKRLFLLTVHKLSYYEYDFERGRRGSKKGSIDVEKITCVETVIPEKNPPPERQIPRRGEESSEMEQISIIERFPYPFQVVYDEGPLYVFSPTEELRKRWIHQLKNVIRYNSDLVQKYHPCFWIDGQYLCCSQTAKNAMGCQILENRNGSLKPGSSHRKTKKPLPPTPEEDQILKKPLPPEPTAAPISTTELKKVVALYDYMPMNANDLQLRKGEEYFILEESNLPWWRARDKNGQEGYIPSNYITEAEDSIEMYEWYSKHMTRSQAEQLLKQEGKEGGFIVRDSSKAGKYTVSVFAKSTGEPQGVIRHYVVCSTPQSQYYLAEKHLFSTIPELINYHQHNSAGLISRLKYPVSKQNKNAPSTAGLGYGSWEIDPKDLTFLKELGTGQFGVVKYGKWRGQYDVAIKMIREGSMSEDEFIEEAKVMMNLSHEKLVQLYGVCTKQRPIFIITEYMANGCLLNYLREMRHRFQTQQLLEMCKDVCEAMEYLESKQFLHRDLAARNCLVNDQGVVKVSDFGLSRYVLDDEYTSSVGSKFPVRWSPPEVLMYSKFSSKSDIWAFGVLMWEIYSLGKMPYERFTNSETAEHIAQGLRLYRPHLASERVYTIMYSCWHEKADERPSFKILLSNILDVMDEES
Sequence of A3 adenosine receptor (P0DMS8 whole entry): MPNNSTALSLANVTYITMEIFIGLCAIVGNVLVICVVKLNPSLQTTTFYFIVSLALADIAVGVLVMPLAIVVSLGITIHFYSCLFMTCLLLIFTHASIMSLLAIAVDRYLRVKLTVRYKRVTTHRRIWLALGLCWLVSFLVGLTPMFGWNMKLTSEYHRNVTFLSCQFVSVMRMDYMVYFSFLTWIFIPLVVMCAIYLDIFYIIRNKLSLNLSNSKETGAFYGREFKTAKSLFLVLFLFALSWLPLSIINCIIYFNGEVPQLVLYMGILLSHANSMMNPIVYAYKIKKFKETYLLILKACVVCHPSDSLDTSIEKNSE
Sequence of CYP3A4 (P08684 whole entry): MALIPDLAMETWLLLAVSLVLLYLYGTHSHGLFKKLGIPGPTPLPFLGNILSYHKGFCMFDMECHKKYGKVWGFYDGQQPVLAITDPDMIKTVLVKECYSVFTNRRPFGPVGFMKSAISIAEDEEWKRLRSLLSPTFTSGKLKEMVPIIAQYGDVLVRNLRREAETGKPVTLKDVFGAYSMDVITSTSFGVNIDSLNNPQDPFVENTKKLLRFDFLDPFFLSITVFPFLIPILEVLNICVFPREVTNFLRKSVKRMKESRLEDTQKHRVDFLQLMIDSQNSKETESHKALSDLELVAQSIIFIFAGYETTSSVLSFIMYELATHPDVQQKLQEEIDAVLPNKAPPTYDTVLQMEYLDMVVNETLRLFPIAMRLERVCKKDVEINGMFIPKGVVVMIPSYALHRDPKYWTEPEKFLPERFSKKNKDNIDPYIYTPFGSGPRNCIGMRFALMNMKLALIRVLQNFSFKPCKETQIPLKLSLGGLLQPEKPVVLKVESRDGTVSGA
T2 sequence (Q08881 whole entry): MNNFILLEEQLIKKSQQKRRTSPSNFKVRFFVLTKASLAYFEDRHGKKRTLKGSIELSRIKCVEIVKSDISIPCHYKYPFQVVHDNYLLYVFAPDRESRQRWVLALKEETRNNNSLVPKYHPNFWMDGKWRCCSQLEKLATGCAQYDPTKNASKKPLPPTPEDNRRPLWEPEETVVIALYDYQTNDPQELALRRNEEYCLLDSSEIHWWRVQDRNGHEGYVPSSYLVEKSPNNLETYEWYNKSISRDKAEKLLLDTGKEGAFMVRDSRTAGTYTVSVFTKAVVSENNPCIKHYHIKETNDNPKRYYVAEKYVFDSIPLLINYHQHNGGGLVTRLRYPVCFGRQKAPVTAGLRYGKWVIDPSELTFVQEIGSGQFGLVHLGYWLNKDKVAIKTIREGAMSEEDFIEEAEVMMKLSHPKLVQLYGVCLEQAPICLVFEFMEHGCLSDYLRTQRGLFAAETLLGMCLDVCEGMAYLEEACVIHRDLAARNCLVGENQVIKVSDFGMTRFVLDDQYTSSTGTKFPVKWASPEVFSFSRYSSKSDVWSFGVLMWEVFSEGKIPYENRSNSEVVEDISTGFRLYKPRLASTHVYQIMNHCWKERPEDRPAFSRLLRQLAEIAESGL

## CC#CC(=O)N1CCC[C@H]1c1nc(-c2ccc(C(=O)Nc3ccccn3)cc2)c2c(N)nccn12 [Formula (II), (<S)-4-(8-amino-3-(l-(but-2-ynoyl)pyrrolidin-2-yl)imidazo[l,5-a]pyrazin-l-yl)-N-(pyridin-2-yl)benzamide]
hepatocytes
  metabolites in hepatocytes (in words): two mono-oxidized metabolites and a glutathione conjugate; also recorded: No unique human metabolite was identified
[1]
  NK cell degranulation (in words): no inhibitory effect
[2]; brain, flushed brains, 5 or 30 mg/kg/day oral gavage, 30 min after dosing, read-out: brain concentration relative to matched plasma
  Kp at 0.5 h: 0.03 to 0.04
[2]; csf, 5 and 30 mg/kg/day oral gavage, read-out: CSF concentration relative to plasma
  Kp at 0.5 h: 0.01 to 0.02
[2]; in vivo
  levels in brain and CSF (in words): crosses the blood-brain barrier; also recorded: low but detectable levels
A3 adenosine receptor
  activity in 80-target binding screen (in words): significant activity only against the A3 adenosine receptor
[3]
  MDSC (monocytic) change vs ALC (in words): patients with decreasing ALC % had increasing MDSC (monocytic) %
  NK cell change vs ALC (in words): patients with decreasing ALC % had increasing NK cell %
[4]
  respiratory function (in words): no treatment-related adverse effects
[5]
  cardiovascular/ECG/body temperature (in words): no meaningful changes in body temperature, cardiovascular, or electrocardiographic (ECG) (including QT interval) parameters
[6]
  inhibition of rituximab ADCC (in words): not inhibited
[7]
  inhibition of GPVI platelet aggregation (in words): does not
[7]; Homo sapiens, Platelet, read-out: IC50, GPVI platelet aggregation
  pIC50: 5.94
[8]; rituximab-stimulated, 240 min
  reduction of NK cell degranulation: < 2%
[8]; rituximab, Formula (II) 1 μM
  NK cell degranulation (in words): did not inhibit
[9]; A431
  inhibition of EGFR phosphorylation (in words): no inhibition
[9]; 2 h, EGF 100 ng/mL 5 min
  EGF-induced p-EGFR inhibition: 7%
[10]
  immature myeloid infiltrate (in words): decreased immature myeloid infiltrate
  immunosuppressive tumor associated myeloid cells and Tregs (in words): reduce immunosuppressive tumor associated myeloid cells and Tregs
  number of Tregs (in words): reduced the number of immunospressive Tregs
  number of tumor associated macrophages (in words): reduced the number of tumor associated macrophages
  tumor burden (in words): significantly reduced tumor burden
[10]; vs vehicle
  tumor volume (in words): statistically significant reductions in tumor volume
[11]
  obinutuzumab-stimulated NK cell degranulation (in words): minimal effect
relapsed/refractory CLL; CLL, compared with ibrutinib
  time to same median % change in SPD: 7 months
relapsed/refractory CLL; FIG. 37
  SPD change vs ibrutinib (in words): decreases more rapidly
  absolute lymphocyte count (ALC) change vs ibrutinib (in words): much smaller relative increase and much faster decrease in absolute lymphocyte count (ALC)
relapsed/refractory CLL; human, in vivo
  adverse event grade (in words): only grade 1 AEs were observed
  disease progression in 17p deletion patients (in words): no 17p patients have progressed
  dose-limiting toxicities (in words): No DLTs were observed; also recorded: has not demonstrated any DLTs to date
  lymphocytosis (in words): A lack of lymphocytosis
  treatment-related serious adverse events (in words): No treatment-related serious adverse events (SAEs) were observed
CD8 + T cells [12]
  CD8+ T cell function as IFN-γ level (in words): no effect on CD8 + T cell function
CYP enzymes
  CYP drug-drug interaction potential (in words): very unlikely to cause clinical drug-drug interactions
ID8 ovarian cancer
  B cells (in words): significant reduction in total B cells; also recorded: significant reduction in immunosuppressive B cells
  B regulatory cells (Bregs) (in words): significant reduction in B regulatory cells (Bregs)
  CD8+ T cells (in words): increase in CD8 + T cells
  ID8 ovarian cancer growth (in words): impairs ID8 ovarian cancer growth
  tumor associated Tregs (in words): significant reduction in immunosuppressive tumor associated Tregs
  tumor-associated lymphocytes (in words): significant reduction in immunosuppressive tumor-associated lymphocytes
[13]; 15 mg/kg BID oral
  survival at day 14: 6/6
  survival at day 28: 5/6
[13]; 15 mg/kg BID oral, combination with gemcitabine 50 mg/kg IV
  tumor growth and survival (in words): substantially slowed pancreatic cancer growth and increased animal survival; also recorded: compared favorably with gemcitabine alone
[13]; 15 mg/kg BID oral, predose 165
  tumor volume, day 28, average: 272 mm3
[13]; tumor tissue
  CD8+ cells (in words): significant increase in CD8 + cells
  MDSCs (Gr1+Ly6CHi) (in words): significantly reduced
  TAMs (CD11b+Ly6ClowF4/80+Csf1r+) (in words): significantly reduced
  Tregs (CD4+CD25+FoxP3+) (in words): significantly reduced
[14]
  effect on thrombus formation (in words): does not interfere with thrombus formation; also recorded: no significant effect on human platelet-mediated thrombus formation
[15]
  glutathione binding (in words): binds to glutathione but does not deplete glutathione
[16]
  neurobehavioral effects / body temperature (in words): no adverse effects on neurobehavioral effects or body temperature
[17]
  reduction in tumor size (in words): efficacy alone
Primary CLL cells
  inhibition of rituximab ADCC (in words): not inhibited
KrasLA2 NSCLC tumors; 15 mg/kg
  number of tumors (in words): fewer overall tumors
  tumor volumes vs vehicle (in words): significant decrease in tumor volumes
KrasLA2 NSCLC tumors; mouse, in vivo
  MDSCs (in words): significant reduction in immunosuppressive tumor associated MDSCs
  TAMs (in words): significant reduction in immunosuppressive tumor associated TAMs
  Tregs (in words): significant reduction in immunosuppressive tumor associated Tregs
[18]
  CD8+ T cell function as % cytotoxicity (in words): no effect on CD8 + T cell function
BTK
  BTK occupancy in granulocytic and monocytic MDSC (in words): Complete BTK occupancy
CD8 + T cells [19]
  CD8+ T cell viability (in words): not observed
CXCL12 and CCL2
  CCL2 levels (in words): significant decrease
  CXCL12 levels (in words): significant decrease
CD4 + T cells
  Th17 development (in words): no adverse effects
  Treg development (in words): no adverse effects
CYP3A4
  CYP metabolism (in words): metabolized by CYP3A4
[20]
  NK cell cytokine release (in words): no inhibitory effect
[21]
  metabolic processes in vivo (in words): oxidation, glutathione binding, and hydrolysis
Apoptotic B-CLL; cleaved PARP+, Caspase 3+, CD19+, CD5+
  samples with baseline change in apoptosis greater than 25%: 82 % of samples
Apoptotic B-CLL; human, in vivo
  apoptosis of B-CLL (in words): increased apoptotis
Itk kinase
  inhibition of Itk (in words): not a potent inhibitor of Itk kinase
[22]
  pEC50: 8.09
